# Laboratory results: patent US10513523B2, “Imidazopyrazines and pyrazolopyrimidines and their use as AMPA receptor modulators” (Janssen Pharmaceutica NV, priority 2015, dated 2019)
# Biological target: GluA1o-γ8 (GRIA1o-CACNG8 fusion construct; TARP γ8 dependent AMPA receptor) (Homo sapiens (Human), UniProt P42261+Q8WXS5)
# Assay: Calcium flux assay (FLIPR), inhibition of glutamate response of GluA1o-γ8 channel
# Assay type: cell-based
# Settings: HEK293 cells stably expressing GRIA1o-CACNG8 fusion; 15 μM glutamate; pIC50 = negative log of IC50 in molar; read-out: GluR1-γ8 (pIC50) (converted)
# Text: This assay was used to test compounds for their ability to inhibit TARP γ8 dependent AMPA receptor activity. The AMPA receptor is a non-selective cation channel activated by glutamate. Ionotropic glutamate receptors normally desensitize too rapidly to allow detectable calcium influx in a FLIPR assay (Strange et al. (2006). “Functional characterisation of homomeric ionotropic glutamate receptors GluR1-GluR6 in a fluorescence-based high throughput screening assay.” Comb Chem High Throughput Screen 9(2): 147-158). But, this desensitization is incomplete, and a substantial steady-state current remains in the sustained presence of glutamate (Cho et al. (2007). “Two families of TARP isoforms that have distinct effects on the kinetic properties of AMPA receptors and synaptic currents.” Neuron 55(6): 890-904).
# An in vitro assay was used to determine the potency of test compounds as inhibitors of the glutamate response of the channel formed by GluA1o-γ8. To ensure a 1:1 stoichiometry of GluA10 and γ8 subunits in the expressed channel, a fusion of the cDNAs for GRIA1o and CACNG8 was used. Following Shi et al (2009) “The stoichiometry of AMPA receptors and TARPs varies by neuronal cell type.” Neuron 62(5): […]), the C-terminus of the cDNA for GRI1o was fused to the N-terminus of the cDNA for γ8. The linker sequence was […]. […] A clonal cell line in HEK293 cells stably expressing this construct, with a geneticin selection marker, was generated for use in this assay. Cell expressing the GRIA1o-CACNG8 fusion construct were grown in a monolayer in 96- or 384-well microtiter plates. They were washed with assay buffer (135 mM NaCl, 4 mM KCl, 3 mM CaCl2, 1 mM MgCl2, 5 mM glucose, 10 mM HEPES, pH 7.4, 300 mOs) using a Biotek EL405 plate washer. The cells were then loaded with a calcium-sensitive dye (Calcium-5 or Calcium-6, Molecular Devices) and the test compounds at a range of concentrations. Calcium flux following the addition of 15 μM glutamate was monitored using a Molecular Devices FLIPR Tetra.
# The fluorescence in each well was normalized to the fluorescence of negative and positive control wells. […] The responses to glutamate as functions of the test compound concentrations were fitted to a four-parameter logistic function. The fitted parameter corresponding to the midpoint was taken to be the potency of inhibition of the compound.
# Sequence of GluA1o-γ8 (GRIA1o-CACNG8 fusion construct; TARP γ8 dependent AMPA receptor) (P42261 other isoform, or with tags, fused parts or gaps): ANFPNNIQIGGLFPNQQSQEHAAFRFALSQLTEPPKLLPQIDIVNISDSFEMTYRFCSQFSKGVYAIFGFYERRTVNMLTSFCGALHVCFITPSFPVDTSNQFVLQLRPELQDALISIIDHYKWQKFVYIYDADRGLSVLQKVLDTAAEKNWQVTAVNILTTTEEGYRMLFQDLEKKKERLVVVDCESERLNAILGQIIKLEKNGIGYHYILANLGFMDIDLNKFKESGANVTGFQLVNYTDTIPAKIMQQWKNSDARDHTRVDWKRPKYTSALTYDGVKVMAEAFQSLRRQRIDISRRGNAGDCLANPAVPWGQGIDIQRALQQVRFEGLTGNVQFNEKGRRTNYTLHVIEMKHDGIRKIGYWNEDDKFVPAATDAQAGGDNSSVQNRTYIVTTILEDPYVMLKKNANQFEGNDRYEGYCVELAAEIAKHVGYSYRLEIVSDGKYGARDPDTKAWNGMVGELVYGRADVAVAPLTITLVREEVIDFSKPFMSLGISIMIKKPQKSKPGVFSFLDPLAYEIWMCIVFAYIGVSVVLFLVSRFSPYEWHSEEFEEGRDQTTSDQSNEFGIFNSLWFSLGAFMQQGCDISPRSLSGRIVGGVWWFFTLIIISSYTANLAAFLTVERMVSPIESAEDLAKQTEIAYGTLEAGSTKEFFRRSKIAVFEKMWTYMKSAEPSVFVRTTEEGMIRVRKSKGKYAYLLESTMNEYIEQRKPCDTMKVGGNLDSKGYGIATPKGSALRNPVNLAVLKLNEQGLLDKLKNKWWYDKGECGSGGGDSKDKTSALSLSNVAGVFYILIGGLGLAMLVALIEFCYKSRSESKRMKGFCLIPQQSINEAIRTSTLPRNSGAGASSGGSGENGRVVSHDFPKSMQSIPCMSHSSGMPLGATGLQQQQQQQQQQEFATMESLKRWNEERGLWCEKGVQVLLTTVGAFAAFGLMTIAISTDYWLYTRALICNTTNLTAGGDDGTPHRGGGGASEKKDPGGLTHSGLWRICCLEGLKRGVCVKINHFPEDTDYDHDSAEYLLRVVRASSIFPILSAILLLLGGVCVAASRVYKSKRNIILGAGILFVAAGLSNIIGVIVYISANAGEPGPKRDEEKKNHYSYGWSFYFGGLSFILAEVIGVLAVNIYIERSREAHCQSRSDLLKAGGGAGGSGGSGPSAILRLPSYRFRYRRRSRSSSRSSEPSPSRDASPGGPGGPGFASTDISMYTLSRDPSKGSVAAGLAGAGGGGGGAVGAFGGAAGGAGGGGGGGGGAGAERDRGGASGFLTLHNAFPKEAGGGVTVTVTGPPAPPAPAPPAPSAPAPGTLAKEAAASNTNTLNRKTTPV
row,IC50 [nM],SMILES
1,5.01,"O=c1[nH]c2ccc(-c3c(-c4ccc(F)cc4)nc4c(N5CC6(COC6)C5)nccn34)cc2[nH]1 [Example 26, 5-[2-(4-Fluorophenyl)-8-(6-oxa-2-azaspiro[3.3]heptan-2-yl)imidazo[1,2-a]pyrazin-3-yl]-1,3-dihydrobenzimidazol-2-one]"
2,0.631,"O=C1Cc2cc(-c3c(-c4ccc(F)cc4)nc4c(N5CCC(O)C5)nccn34)ccc2N1 (stereo not shown) [Example 41, 5-[2-(4-Fluorophenyl)-8-(3-hydroxypyrrolidin-1-yl)imidazo[1,2-a]pyrazin-3-yl]indolin-2-one]"
3,31.6,"Cc1cc(O)ccc1-c1c(-c2ccc(F)cc2)nc2c(N3CCOCC3)nccn12 [Example 2, 4-[2-(4-Fluorophenyl)-8-morpholino-imidazo[1,2-a]pyrazin-3-yl]-3-methyl-phenol]"
4,0.251,"O=C1Cc2cc(-c3c(-c4ccc(F)cc4)nc4c(N5CCC(O)C(F)(F)C5)nccn34)ccc2N1 (stereo not shown) [Example 71, 5-[8-(3,3-Difluoro-4-hydroxy-1-piperidyl)-2-(4-fluorophenyl)imidazo[1,2-a]pyrazin-3-yl]indolin-2-one]"
5,1.26,"O=C1CN(c2nccn3c(-c4ccc5[nH]c(=O)[nH]c5c4)c(-c4ccc(F)cc4)nc23)CCN1 [Example 34, 5-[2-(4-Fluorophenyl)-8-(3-oxopiperazin-1-yl)imidazo[1,2-a]pyrazin-3-yl]-1,3-dihydrobenzimidazol-2-one]"
6,0.316,"O=C1Cc2cc(-c3c(-c4ccc(F)cc4)nc4c(N5CC[C@H](O)[C@H](F)C5)nccn34)ccc2N1 (relative stereo) [Example 73, (cis)-5-[8-(3-Fluoro-4-hydroxy-1-piperidyl)-2-(4-fluorophenyl)imidazo[1,2-a]pyrazin-3-yl]indolin-2-one]"
7,0.158,"O=C1Cc2cc(-c3c(-c4ccc(F)cc4)nc4c(N5CCC6(CC5)N=N6)nccn34)ccc2N1 [Example 185, 5-(2-(4-Fluorophenyl)-8-(1,2,6-triazaspiro[2.5]oct-1-en-6-yl)imidazo[1,2-a]pyrazin-3-yl)indolin-2-one]"
8,0.2,"CC(=O)N1CCN(c2nccn3c(-c4ccc5[nH]ncc5c4)c(-c4ccc(F)cc4)nc23)CC1 [Example 13, 1-[4-[2-(4-Fluorophenyl)-3-(1H-indazol-5-yl)imidazo[1,2-a]pyrazin-8-yl]piperazin-1-yl]ethanone]"
9,79.4,"O=C1Cc2cc(-c3c(-c4ccc(F)cc4)nc4c(N5CCC(=NO)CC5)nccn34)ccc2N1 [Example 155, 5-[2-(4-Fluorophenyl)-8-(4-hydroxyimino-1-piperidyl)imidazo[1,2-a]pyrazin-3-yl]indolin-2-one]"
10,1.58,"O=C1Cc2cc(-c3c(-c4ccc(F)cc4)nc4c(N5CC(Cl)C5)nccn34)ccc2N1 [Example 61, 5-[8-(3-Chloroazetidin-1-yl)-2-(4-fluorophenyl)imidazo[1,2-a]pyrazin-3-yl]indolin-2-one]"

# More lines, now with the values behind:
row,SMILES,IC50 [nM]
1,"O=C1Cc2cc(-c3c(C4CC4)nc4cnc(C(F)(F)F)cn34)ccc2N1 [Example 219, 5-[2-Cyclopropyl-6-(trifluoromethyl)imidazo[1,2-a]pyrazin-3-yl]indolin-2-one]",6310
2,"C[C@@H]1COCCN1c1nccn2c(-c3ccc4c(c3)CC(=O)N4)c(-c3ccc(F)cc3)nc12 [Example 44, 5-[2-(4-Fluorophenyl)-8-[(3R)-3-methylmorpholin-4-yl]imidazo[1,2-a]pyrazin-3-yl]indolin-2-one]",7.94
3,"O=C1Cc2cc(-c3c(-c4ccccc4)nn4c(N5CCOCC5)nccc34)ccc2N1 [Example 201, 5-(7-Morpholino-2-phenyl-pyrazolo[1,5-c]pyrimidin-3-yl)indolin-2-one]",1
4,"O=c1[nH]c2ccc(-c3c(-c4ccc(F)cc4)nc4c(N5CCOCC5)ncc(Cl)n34)cc2[nH]1 [Example 82, 5-[5-Chloro-2-(4-fluorophenyl)-8-morpholino-imidazo[1,2-a]pyrazin-3-yl]-1,3-dihydrobenzimidazol-2-one]",0.316
5,"CC(C)(C)c1nc2c(N3CCOCC3)nccn2c1-c1ccc2c(c1)CC(=O)N2 [Example 86, 5-(2-tert-Butyl-8-morpholino-imidazo[1,2-a]pyrazin-3-yl)indolin-2-one]",158
6,"O=C1Cc2cc(-c3c(C4CC4)nc4c(N5CCOCC5)nccn34)ccc2N1 [Example 91, 5-(2-Cyclopropyl-8-morpholino-imidazo[1,2-a]pyrazin-3-yl)indolin-2-one]",501
7,"COC1CN(c2nccc3c(-c4ccc5c(c4)CC(=O)N5)c(-c4ccccc4)nn23)C1 [Example 191, 5-[7-(3-Methoxyazetidin-1-yl)-2-phenyl-pyrazolo[1,5-c]pyrimidin-3-yl]indolin-2-one]",2.51
8,"Cc1cnc(N2CCOCC2)n2nc(-c3ccccc3)c(-c3ccc4c(c3)CC(=O)N4)c12 [Example 208, 5-(4-Methyl-7-morpholino-2-phenyl-pyrazolo[1,5-c]pyrimidin-3-yl)indolin-2-one]",0.126
9,"O=C1Cc2cc(-c3c(-c4ccccc4)nn4c(N5CC[C@@H](O)[C@@H](F)C5)nccc34)ccc2N1 (relative stereo) [Example 204, (cis)-5-[7-(3-Fluoro-4-hydroxy-1-piperidyl)-2-phenyl-pyrazolo[1,5-c]pyrimidin-3-yl]indolin-2-one]",1.26
10,"CC(=O)N1CCN(c2nccn3c(-c4ccc5c(c4)CC(=O)N5)c(C(=O)c4ccccc4)nc23)CC1 [Example 158, 5-[8-(4-Acetylpiperazin-1-yl)-2-benzoyl-imidazo[1,2-a]pyrazin-3-yl]indolin-2-one]",5.01
11,"Cc1nccn2c(-c3ccc4c(c3)CC(=O)N4)c(-c3ccc(F)cc3)nc12 [Example 133, 5-[2-(4-Fluorophenyl)-8-methyl-imidazo[1,2-a]pyrazin-3-yl]indolin-2-one]",251
12,"CS(=O)(=O)C1CN(c2nccn3c(-c4ccc5c(c4)CC(=O)N5)c(-c4ccc(F)cc4)nc23)C1 [Example 62, 5-[2-(4-Fluorophenyl)-8-(3-methylsulfonylazetidin-1-yl)imidazo[1,2-a]pyrazin-3-yl]indolin-2-one]",10
13,"COC1CN(c2nccc3c(-c4ccc5c(c4)CC(=O)N5)c(C4CCCC4)nn23)C1 [Example 195, 5-[2-Cyclopentyl-7-(3-methoxyazetidin-1-yl)pyrazolo[1,5-c]pyrimidin-3-yl]indolin-2-one]",316
14,"O=C1Cc2cc(-c3c(C(=O)Nc4ccccc4)nc4c(N5CCOCC5)nccn34)ccc2N1 [Example 137, 8-Morpholino-3-(2-oxoindolin-5-yl)-N-phenylimidazo[1,2-a]pyrazine-2-carboxamide]",6.31
15,"O=C(Nc1ccccc1)c1nc2c(N3CCOCC3)nccn2c1-c1ccc2[nH]c(=O)[nH]c2c1 [Example 140, 8-Morpholino-3-(2-oxo-1,3-dihydrobenzimidazol-5-yl)-N-phenyl-imidazo[1,2-a]pyrazine-2-carboxamide]",20
16,"O=C1Cc2cc(-c3c(C4CCCC4)nn4c(N5CC(O)C5)nccc34)ccc2N1 [Example 205, 5-[2-Cyclopentyl-7-(3-hydroxyazetidin-1-yl)pyrazolo[1,5-c]pyrimidin-3-yl]indolin-2-one]",631
17,"Cc1cc2c(-c3ccc4c(c3)CC(=O)N4)c(-c3ccccc3)nn2c(N2CCOCC2)n1 [Example 198, 5-(5-Methyl-7-morpholino-2-phenyl-pyrazolo[1,5-c]pyrimidin-3-yl)indolin-2-one]",3.16
18,"O=C1Cc2cc(-c3c(C4CCC4)nc4c(N5CCOCC5)nccn34)ccc2N1 [Example 90, 5-(2-Cyclobutyl-8-morpholino-imidazo[1,2-a]pyrazin-3-yl)indolin-2-one]",200
19,"O=c1[nH]c2ccc(-c3c(-c4ccccc4)nc4cnc(C(F)(F)F)cn34)cc2s1 [Example 245, 6-[2-Phenyl-6-(trifluoromethyl)imidazo[1,2-a]pyrazin-3-yl]-3H-1,3-benzothiazol-2-one]",12.6
20,"O=C(c1ccc(F)cc1)c1nc2c(N3CCOCC3)nccn2c1-c1ccc(O)cc1 [Example 149, (4-Fluorophenyl)(3-(4-hydroxyphenyl)-8-morpholinoimidazo[1,2-a]pyrazin-2-yl)methanone]",3.98
21,"O=C1Cc2cc(-c3c(C(=O)c4ccccc4)nc4c(N5CCOCC5)nccn34)ccc2N1 [Example 153, 5-(2-Benzoyl-8-morpholino-imidazo[1,2-a]pyrazin-3-yl)indolin-2-one]",0.316
